{"source": "paper PMC8698657", "about": "“Absorption and Transport Characteristics and Mechanisms of Carnosic Acid” (Biology, 2021)", "key": {"[1]": {"experiment": "Effect of verapamil, PEG 400 and EDTA on trans-enterocyte transport of CA", "type": "in vitro ADME, human", "settings": "human, read-out: Papp AP to BL", "description": "(§1) CA was dissolved in HBSS solution at 50, 75, and 100 μM. The HBSS solution containing CA combined with 0.5% Tween 80, 5 mmol/L EDTA or 5% PEG 400 was prepared. The cumulative migration (Qr), apparent permeability coefficient (Papp), and the Papp value of bi-direction transport of CA were calculated according to formulas.\n(§2) The 0.5 mL HBSS solution containing CA (50, 75, and 100 μM) combined with 100 μmoL/L verapamil, 5% PEG 400, or 5 mmol/L EDTA was added to the AP side of the Transwell plate, and 1.5 mL HBSS solution was added to the BL side. The effect of verapamil, Tween 80, PEG 400, and EDTA on the trans-enterocyte of CA was investigated according to the method described above. The TEER value of each Transwell chamber was measured.\n(§3) The cryopreserved Transwell samples were transferred to a 15 mL centrifuge tube, and any remaining liquid was fully washed using 1 mL of 50% methanol solution which was also transferred to the 15 mL centrifuge tube. The mixture was vortexed for 1 min, and 6 mL of ethyl acetate solution was added to the tube and vortexed for another 2 min. The mixture was centrifuged at 6000 rpm/min at 4 °C for 10 min. The supernatant was dried under vacuum, dissolved in 5% phosphoric acid methanol solution, and filtered through a 0.22 μm microporous membrane. The concentration of CA was determined by HPLC as described above."}, "Caco-2 cell monolayer": {"tested_on": "Caco-2 cell monolayer", "experiment": "Effect of verapamil, PEG 400 and EDTA on trans-enterocyte transport of CA", "type": "in vitro ADME, human", "description": "as §1, §2, §3"}, "[2]": {"settings": "cited from earlier work"}, "[3]": {"experiment": "Body weight, organ weights and appearance of CA-fed mice", "type": "in vivo", "settings": "50 mg/kg/daily oral gavage", "description": "The animal experiment protocol was approved by the Institutional Animal Care and Use Committee of Guangzhou Medical University (#GY2020-067, 30 July 2020). Male ICR mice aged 5–6 weeks were kept in a specific-pathogen-free environment with 12-h light/dark cycles. […] Both groups were allowed to eat and drink ad libitum. Four hours after the last gavage, the mice were anesthetized, and their eyeballs were removed for blood collection. They were sacrificed and immediately dissected in the supine position. Serum, major organs (heart, liver, lung, stomach, spleen, kidney, small intestine, cecum, and colon), and the contents of the stomach, small intestine, cecum, and colon were collected, weighed, and stored at −80 °C."}}, "note": "Where two headings read alike, the source gives them in different places.", "data": [{"compound": "CC(C)c1cc2c(c(O)c1O)[C@@]1(C(=O)O)CCCC(C)(C)[C@@H]1CC2", "note": "[CA, Carnosic acid]", "values": [{"measurement": "Papp A→B at 1 h, 100 μM", "setting": "[1]; Caco-2, CA 100 μM, 1.0 h, + 5% PEG 400", "result": "3.59 ± 0.1", "unit": "×10⁻⁶ cm/s"}, {"measurement": "Papp A→B at 1 h, 100 μM", "setting": "[1]; Caco-2, CA 100 μM, 1.0 h, + 5 mmoL/L EDTA", "result": "2.25 ± 0.09", "unit": "×10⁻⁶ cm/s"}, {"measurement": "Papp A→B at 1.5 h, 100 μM", "setting": "[1]; Caco-2, CA 100 μM, 1.5 h, + 5% PEG 400", "result": "2.89 ± 0.05", "unit": "×10⁻⁶ cm/s"}, {"measurement": "Papp A→B at 1.5 h, 100 μM", "setting": "[1]; Caco-2, CA 100 μM, 1.5 h, + 5 mmoL/L EDTA", "result": "1.96 ± 0.07", "unit": "×10⁻⁶ cm/s"}, {"measurement": "Papp A→B at 2 h, 100 μM", "setting": "[1]; Caco-2, CA 100 μM, 2.0 h, + 5% PEG 400", "result": "2.25 ± 0.02", "unit": "×10⁻⁶ cm/s"}, {"measurement": "Papp A→B at 2 h, 100 μM", "setting": "[1]; Caco-2, CA 100 μM, 2.0 h, + 5 mmoL/L EDTA", "result": "3.01 ± 0.03", "unit": "×10⁻⁶ cm/s"}, {"measurement": "Papp A→B at 2.5 h, 100 μM", "setting": "[1]; Caco-2, CA 100 μM, 2.5 h, + 5% PEG 400", "result": "2.44 ± 0.01", "unit": "×10⁻⁶ cm/s"}, {"measurement": "Papp A→B at 2.5 h, 100 μM", "setting": "[1]; Caco-2, CA 100 μM, 2.5 h, + 5 mmoL/L EDTA", "result": "1.82 ± 0.08", "unit": "×10⁻⁶ cm/s"}, {"measurement": "Papp A→B at 3 h, 100 μM", "setting": "[1]; Caco-2, CA 100 μM, 3.0 h, + 5% PEG 400", "result": "2.14 ± 0.02", "unit": "×10⁻⁶ cm/s"}, {"measurement": "Papp A→B at 3 h, 100 μM", "setting": "[1]; Caco-2, CA 100 μM, 3.0 h, + 5 mmoL/L EDTA", "result": "1.56 ± 0.07", "unit": "×10⁻⁶ cm/s"}, {"measurement": "Papp A→B at 100 μM", "setting": "[1]; Caco-2, CA 100 μM, Average of 0.5-3.0 h, + 5% PEG 400", "result": "2.76 ± 0.07", "unit": "×10⁻⁶ cm/s"}, {"measurement": "Papp A→B at 100 μM", "setting": "[1]; Caco-2, CA 100 μM, Average of 0.5-3.0 h, + 5 mmoL/L EDTA", "result": "1.83 ± 0.05", "unit": "×10⁻⁶ cm/s"}, {"measurement": "Papp A→B at 0.5 h, 50 μM", "setting": "[1]; Caco-2, with verapamil 100 μmol/L, CA 50 μM, 0.5 h, + 100 μmoL/L verapamil", "result": "1.98 ± 0.06", "unit": "×10⁻⁶ cm/s"}, {"measurement": "Papp A→B at 1 h, 50 μM", "setting": "[1]; Caco-2, with verapamil 100 μmol/L, CA 50 μM, 1.0 h, + 100 μmoL/L verapamil", "result": "1.89 ± 0.09", "unit": "×10⁻⁶ cm/s"}, {"measurement": "Papp A→B at 1.5 h, 50 μM", "setting": "[1]; Caco-2, with verapamil 100 μmol/L, CA 50 μM, 1.5 h, + 100 μmoL/L verapamil", "result": "1.84 ± 0.06", "unit": "×10⁻⁶ cm/s"}, {"measurement": "Papp A→B at 2 h, 50 μM", "setting": "[1]; Caco-2, with verapamil 100 μmol/L, CA 50 μM, 2.0 h, + 100 μmoL/L verapamil", "result": "2.08 ± 0.1", "unit": "×10⁻⁶ cm/s"}, {"measurement": "Papp A→B at 2.5 h, 50 μM", "setting": "[1]; Caco-2, with verapamil 100 μmol/L, CA 50 μM, 2.5 h, + 100 μmoL/L verapamil", "result": "0.95 ± 0.03", "unit": "×10⁻⁶ cm/s"}, {"measurement": "Papp A→B at 3 h, 50 μM", "setting": "[1]; Caco-2, with verapamil 100 μmol/L, CA 50 μM, 3.0 h, + 100 μmoL/L verapamil", "result": "1.37 ± 0.09", "unit": "×10⁻⁶ cm/s"}, {"measurement": "Papp A→B at 3 h, 75 μM", "setting": "[1]; Caco-2, with verapamil 100 μmol/L, CA 75 μM, 3.0 h, + 100 μmoL/L verapamil", "result": "0.69 ± 0.01", "unit": "×10⁻⁶ cm/s"}, {"measurement": "Papp A→B at 75 μM", "setting": "[1]; Caco-2, with verapamil 100 μmol/L, CA 75 μM, Average of 0.5-3.0 h, + 100 μmoL/L verapamil", "result": "1.53 ± 0.04", "unit": "×10⁻⁶ cm/s"}, {"measurement": "Papp A→B at 0.5 h, 100 μM", "setting": "[1]; Caco-2, with verapamil 100 μmol/L, CA 100 μM, 0.5 h, + 100 μmoL/L verapamil", "result": "1.26 ± 0.02", "unit": "×10⁻⁶ cm/s"}, {"measurement": "Papp A→B at 1 h, 100 μM", "setting": "[1]; Caco-2, with verapamil 100 μmol/L, CA 100 μM, 1.0 h, + 100 μmoL/L verapamil", "result": "1.7 ± 0.01", "unit": "×10⁻⁶ cm/s"}, {"measurement": "Papp A→B at 1.5 h, 100 μM", "setting": "[1]; Caco-2, with verapamil 100 μmol/L, CA 100 μM, 1.5 h, + 100 μmoL/L verapamil", "result": "2.99 ± 0.03", "unit": "×10⁻⁶ cm/s"}, {"measurement": "Papp A→B at 2 h, 100 μM", "setting": "[1]; Caco-2, with verapamil 100 μmol/L, CA 100 μM, 2.0 h, + 100 μmoL/L verapamil", "result": "1.24 ± 0.02", "unit": "×10⁻⁶ cm/s"}, {"measurement": "Papp A→B at 2.5 h, 100 μM", "setting": "[1]; Caco-2, with verapamil 100 μmol/L, CA 100 μM, 2.5 h, + 100 μmoL/L verapamil", "result": "0.95 ± 0.05", "unit": "×10⁻⁶ cm/s"}, {"measurement": "Papp A→B at 3 h, 100 μM", "setting": "[1]; Caco-2, with verapamil 100 μmol/L, CA 100 μM, 3.0 h, + 100 μmoL/L verapamil", "result": "1.09 ± 0.02", "unit": "×10⁻⁶ cm/s"}, {"measurement": "Papp A→B at 100 μM", "setting": "[1]; Caco-2, with verapamil 100 μmol/L, CA 100 μM, Average of 0.5-3.0 h, + 100 μmoL/L verapamil", "result": "1.53 ± 0.07", "unit": "×10⁻⁶ cm/s"}, {"measurement": "Papp A→B at 50 μM", "setting": "[1]; Caco-2, with verapamil 100 μmoL/L, CA 50 μM, Average of 0.5-3.0 h, + 100 μmoL/L verapamil", "result": "1.5 ± 0.02", "unit": "×10⁻⁶ cm/s"}, {"measurement": "Papp A→B at 0.5 h, 75 μM", "setting": "[1]; Caco-2, with verapamil 100 μmoL/L, CA 75 μM, 0.5 h, + 100 μmoL/L verapamil", "result": "1.12 ± 0.01", "unit": "×10⁻⁶ cm/s"}, {"measurement": "Papp A→B at 1 h, 75 μM", "setting": "[1]; Caco-2, with verapamil 100 μmoL/L, CA 75 μM, 1.0 h, + 100 μmoL/L verapamil", "result": "1.32 ± 0.01", "unit": "×10⁻⁶ cm/s"}, {"measurement": "Papp A→B at 1.5 h, 75 μM", "setting": "[1]; Caco-2, with verapamil 100 μmoL/L, CA 75 μM, 1.5 h, + 100 μmoL/L verapamil", "result": "0.85 ± 0.03", "unit": "×10⁻⁶ cm/s"}, {"measurement": "Papp A→B at 2 h, 75 μM", "setting": "[1]; Caco-2, with verapamil 100 μmoL/L, CA 75 μM, 2.0 h, + 100 μmoL/L verapamil", "result": "1.94 ± 0.06", "unit": "×10⁻⁶ cm/s"}, {"measurement": "Papp A→B at 2.5 h, 75 μM", "setting": "[1]; Caco-2, with verapamil 100 μmoL/L, CA 75 μM, 2.5 h, + 100 μmoL/L verapamil", "result": "0.87 ± 0.1", "unit": "×10⁻⁶ cm/s"}, {"measurement": "increase of Papp (AP to BL) in the presence of EDTA vs control", "setting": "Caco-2 cell monolayer; 5 mmol/L EDTA", "result": "~ 1.5 fold"}, {"measurement": "active efflux / P-gp substrate status", "setting": "Caco-2 cell monolayer; from effect of verapamil and PEG 400 on Papp (AP to BL)", "result": "could be a substrate of P-gp"}, {"measurement": "toxicity of orally administered CA", "setting": "[2]; 64.3 and 90 mg/kg oral", "result": "nontoxic"}, {"measurement": "circulating concentration", "setting": "[2]; rats, 4 h after oral gavage", "result": 0.39, "unit": "µg/mL"}, {"measurement": "main elimination route", "setting": "[2]; rats, oral 64.3 ± 5.8 mg/kg", "result": "fecal excretion"}, {"measurement": "overall bioavailability", "setting": "[2]; rats, oral", "result": "40–65%"}, {"measurement": "adverse effects", "setting": "[3]", "result": "not associated with noticeable adverse effects"}, {"measurement": "body weight and weights of liver and spleen, CA-fed vs control mice", "setting": "[3]", "result": "no significant difference"}, {"measurement": "Body Weight", "setting": "[3]; week 1", "result": "33.2 ± 0.9", "unit": "g"}, {"measurement": "Body Weight", "setting": "[3]; week 2", "result": "34.8 ± 2.5", "unit": "g"}, {"measurement": "Body Weight", "setting": "[3]; week 3", "result": "37.1 ± 1.8", "unit": "g"}, {"measurement": "Body Weight", "setting": "[3]; week 4", "result": "38.9 ± 2.4", "unit": "g"}, {"measurement": "Body Weight", "setting": "[3]; week 5", "result": "41.2 ± 3.1", "unit": "g"}]}]}
